Test results as given in patent US10004701B2, “Methods and compositions for treating infection” (UNIVERSITY OF ROCHESTER, priority 2012, dated 2018).
Structures can show the parent of a compound that is named as a salt. Where two headings read alike, the source gives them in different places.

Key:
Assay in all cases: AK assay 384-well format, Prestwick library screening
K. pneumoniae = format: cell-based, Klebsiella pneumoniae; settings: for fold induction at 50 µM: Klebsiella pneumoniae, 3 h
E. cloacae = format: cell-based, Enterobacter cloacae; settings: for fold induction at 50 µM: Enterobacter cloacae, 3 h
E. coli = format: cell-based, Escherichia coli; settings: for fold induction at 50 µM: Escherichia coli, 3 h
P. aeruginosa = format: cell-based, Pseudomonas aeruginosa; settings: for fold induction at 50 µM: Pseudomonas aeruginosa, 3 h
[1] = system: S. aureus strain USA300-0114; format: cell-based, Staphylococcus aureus; settings: for fold induction at 50 µM: Staphylococcus aureus, USA300, 3 h
E. faecium = format: cell-based, Enterococcus faecium; settings: for fold induction at 50 µM: Enterococcus faecium, 3 h
[2] = system: A. baumannii strain 98-37-09; format: cell-based, Acinetobacter baumannii; settings: for fold induction at 50 µM: Acinetobacter baumannii, 983709, 3 h
[3] = planktonic K. pneumoniae, 50 μM final drug concentration, 384-well, cutoff for positive-scoring molecules 3-fold increase, read-out: AK-based Prestwick Library Screening Results: K. pneumoniae (increase in extracellular AK activity)
[4] = planktonic E. cloacae, 50 μM final drug concentration, 384-well, cutoff for positive-scoring molecules 3-fold increase, read-out: AK-based Prestwick Library Screening Results: E. cloacae (increase in extracellular AK activity)
[5] = planktonic P. aeruginosa, 50 μM final drug concentration, 384-well, cutoff for positive-scoring molecules 3-fold increase, read-out: AK-based Prestwick Library Screening Results: P. aeruginosa (increase in extracellular AK activity)
[6] = planktonic S. aureus, 50 μM final drug concentration, 384-well, cutoff for positive-scoring molecules 3-fold increase, read-out: AK-based Prestwick Library Screening Results: S. aureus (increase in extracellular AK activity)
[7] = planktonic E. faecium, 50 μM final drug concentration, 384-well, cutoff for positive-scoring molecules 3-fold increase, read-out: AK-based Prestwick Library Screening Results: E. faecium (increase in extracellular AK activity)
[8] = planktonic A. baumannii, 50 μM final drug concentration, 384-well, cutoff for positive-scoring molecules 3-fold increase, read-out: AK-based Prestwick Library Screening Results: A. baumannii (increase in extracellular AK activity)

With N=C(N)NC(=O)c1nc(Cl)c(N)nc1N [Amiloride hydrochloride dihydrate] the fold induction at 50 µM (K. pneumoniae; 50 μM final drug concentration, 384-well format, cutoff for positive-scoring molecules 3-fold increase, read-out: AK-based Prestwick Library Screening Results, K. pneumoniae (increase in extracellular AK activity)) was 0.4, the fold induction at 50 µM (E. cloacae; 50 μM final drug concentration, 384-well format, cutoff for positive-scoring molecules 3-fold increase, read-out: AK-based Prestwick Library Screening Results, E. cloacae (increase in extracellular AK activity)) was 0.4 and the fold induction at 50 µM (E. coli; 50 μM final drug concentration, 384-well format, cutoff for positive-scoring molecules 3-fold increase, read-out: AK-based Prestwick Library Screening Results, E. coli (increase in extracellular AK activity)) was 0.5. It also gave a fold induction at 50 µM (P. aeruginosa; 50 μM final drug concentration, 384-well format, cutoff for positive-scoring molecules 3-fold increase, read-out: AK-based Prestwick Library Screening Results, P. aeruginosa (increase in extracellular AK activity)) of 0.3, a fold induction at 50 µM ([1]; 50 μM final drug concentration, 384-well format, cutoff for positive-scoring molecules 3-fold increase, read-out: AK-based Prestwick Library Screening Results, S. aureus (increase in extracellular AK activity)) of 0.4 and a fold induction at 50 µM (E. faecium; 50 μM final drug concentration, 384-well format, cutoff for positive-scoring molecules 3-fold increase, read-out: AK-based Prestwick Library Screening Results, E. faecium (increase in extracellular AK activity)) of 0.8. For the same compound, the fold induction at 50 µM ([2]; 50 μM final drug concentration, 384-well format, cutoff for positive-scoring molecules 3-fold increase, read-out: AK-based Prestwick Library Screening Results, A. baumannii (increase in extracellular AK activity)) was 0.4.

In the case of Cytisine (−), the “AK-based Prestwick Library Screening Results, K. pneumoniae (fold increase in extracellular AK activity)” value (K. pneumoniae) is reported as 1.2, the “AK-based Prestwick Library Screening Results, E. cloacae (fold increase in extracellular AK activity)” value (E. cloacae) is reported as 1.5 and the “AK-based Prestwick Library Screening Results, E. coli (fold increase in extracellular AK activity)” value (E. coli) is reported as 1.3. For the same compound, the “AK-based Prestwick Library Screening Results, P. aeruginosa (fold increase in extracellular AK activity)” value (P. aeruginosa) was 1.2, the “AK-based Prestwick Library Screening Results, S. aureus (fold increase in extracellular AK activity)” value [1] was 1.0 and the “AK-based Prestwick Library Screening Results, E. faecium (fold increase in extracellular AK activity)” value (E. faecium) was 1.0. The “AK-based Prestwick Library Screening Results, A. baumannii (fold increase in extracellular AK activity)” value [2] was 1.4.

Compound CCN1C[C@]2(COC)CC[C@H](OC)[C@]34C5C[C@@H]6[C@@H](OC)C[C@@]7(OCO[C@@]7(C13)[C@@H](O)C24)C5[C@H]6OC (some centres unmarked) [Delcorine] has a fold induction at 50 µM (K. pneumoniae; 50 μM final drug concentration, planktonic, […], read-out: AK-based Prestwick Library Screening Results, K. pneumoniae (fold increase in extracellular AK activity)) of 0.7, a fold induction at 50 µM (E. cloacae; 50 μM final drug concentration, planktonic, […], read-out: AK-based Prestwick Library Screening Results, E. cloacae (fold increase in extracellular AK activity)) of 1.2 and a fold induction at 50 µM (E. coli; 50 μM final drug concentration, planktonic, […], read-out: AK-based Prestwick Library Screening Results, E. coli (fold increase in extracellular AK activity)) of 0.8. It also gave a fold induction at 50 µM (P. aeruginosa; 50 μM final drug concentration, planktonic, […], read-out: AK-based Prestwick Library Screening Results, P. aeruginosa (fold increase in extracellular AK activity)) of 0.9, a fold induction at 50 µM ([1]; 50 μM final drug concentration, planktonic, […], read-out: AK-based Prestwick Library Screening Results, S. aureus (fold increase in extracellular AK activity)) of 0.7 and a fold induction at 50 µM (E. faecium; 50 μM final drug concentration, planktonic, […], read-out: AK-based Prestwick Library Screening Results, E. faecium (fold increase in extracellular AK activity)) of 0.9. The fold induction at 50 µM ([2]; 50 μM final drug concentration, planktonic, […], read-out: AK-based Prestwick Library Screening Results, A. baumannii (fold increase in extracellular AK activity)) was 0.9.

CC[C@@H](C(=O)[C@@H](C)[C@@H](O)[C@H](C)CCc1ccc(C)c(O)c1C(=O)O)[C@H]1O[C@](CC)([C@H]2CC[C@](O)(CC)[C@H](C)O2)C[C@@H]1C [Lasalocid sodium salt] gave a fold induction at 50 µM (K. pneumoniae; 50 μM final drug concentration, planktonic, cutoff for positive-scoring molecules 3-fold increase, read-out: AK-based Prestwick Library Screening Results, K. pneumoniae (fold increase in extracellular AK activity)) of 0.7, a fold induction at 50 µM (E. cloacae; 50 μM final drug concentration, planktonic, cutoff for positive-scoring molecules 3-fold increase, read-out: AK-based Prestwick Library Screening Results, E. cloacae (fold increase in extracellular AK activity)) of 1 and a fold induction at 50 µM (E. coli; 50 μM final drug concentration, planktonic, cutoff for positive-scoring molecules 3-fold increase, read-out: AK-based Prestwick Library Screening Results, E. coli (fold increase in extracellular AK activity)) of 1. It also gave a fold induction at 50 µM (P. aeruginosa; 50 μM final drug concentration, planktonic, cutoff for positive-scoring molecules 3-fold increase, read-out: AK-based Prestwick Library Screening Results, P. aeruginosa (fold increase in extracellular AK activity)) of 0.7, a fold induction at 50 µM ([1]; 50 μM final drug concentration, planktonic, cutoff for positive-scoring molecules 3-fold increase, read-out: AK-based Prestwick Library Screening Results, S. aureus (fold increase in extracellular AK activity)) of 3.7 and a fold induction at 50 µM (E. faecium; 50 μM final drug concentration, planktonic, cutoff for positive-scoring molecules 3-fold increase, read-out: AK-based Prestwick Library Screening Results, E. faecium (fold increase in extracellular AK activity)) of 0.9. For the same compound, the fold induction at 50 µM ([2]; 50 μM final drug concentration, planktonic, cutoff for positive-scoring molecules 3-fold increase, read-out: AK-based Prestwick Library Screening Results, A. baumannii (fold increase in extracellular AK activity)) was 2.6.

Compound CN(Cc1cnc2nc(N)nc(N)c2n1)c1ccc(C(=O)N[C@@H](CCC(=O)O)C(=O)O)cc1 [Methotrexate] has a fold induction at 50 µM (K. pneumoniae; [3]) of 0.8, a fold induction at 50 µM (E. cloacae; [4]) of 1.3 and a fold induction at 50 µM (E. coli; planktonic E. coli, 50 μM final drug concentration, 384-well, […], read-out: AK-based Prestwick Library Screening Results: E. coli (increase in extracellular AK activity)) of 1.1. It also gave a fold induction at 50 µM (P. aeruginosa; [5]) of 1, a fold induction at 50 µM [1, 6] of 0.9 and a fold induction at 50 µM (E. faecium; [7]) of 0.8. For the same compound, the fold induction at 50 µM [2, 8] was 1.

In the case of OCCN1CCN(CC/C=C2/c3ccccc3Sc3ccc(Cl)cc32)CC1 [Zuclopenthixol hydrochloride], the fold induction at 50 µM (K. pneumoniae; planktonic K. pneumoniae, 50 μM final drug concentration, positive cutoff 3-fold increase, read-out: AK-based Prestwick library screening result, K. pneumoniae (fold increase in extracellular AK activity)) is reported as 1, the fold induction at 50 µM (E. cloacae; planktonic E. cloacae, 50 μM final drug concentration, positive cutoff 3-fold increase, read-out: AK-based Prestwick library screening result, E. cloacae (fold increase in extracellular AK activity)) is reported as 1.3 and the fold induction at 50 µM (E. coli; planktonic E. coli, 50 μM final drug concentration, positive cutoff 3-fold increase, read-out: AK-based Prestwick library screening result, E. coli (fold increase in extracellular AK activity)) is reported as 1.2. The fold induction at 50 µM (P. aeruginosa; planktonic P. aeruginosa, 50 μM final drug concentration, positive cutoff 3-fold increase, read-out: AK-based Prestwick library screening result, P. aeruginosa (fold increase in extracellular AK activity)) was 0.9, the fold induction at 50 µM ([1]; planktonic S. aureus, 50 μM final drug concentration, positive cutoff 3-fold increase, read-out: AK-based Prestwick library screening result, S. aureus (fold increase in extracellular AK activity)) was 0.7 and the fold induction at 50 µM (E. faecium; planktonic E. faecium, 50 μM final drug concentration, positive cutoff 3-fold increase, read-out: AK-based Prestwick library screening result, E. faecium (fold increase in extracellular AK activity)) was 1. The fold induction at 50 µM ([2]; planktonic A. baumannii, 50 μM final drug concentration, positive cutoff 3-fold increase, read-out: AK-based Prestwick library screening result, A. baumannii (fold increase in extracellular AK activity)) was 1.9.

For CSc1ccc2c(c1)N(CCC1CCCCN1C)c1ccccc1S2 (centres unmarked) [Thioridazine hydrochloride], the fold induction at 50 µM (K. pneumoniae; [3]) was 1.3, the fold induction at 50 µM (E. cloacae; [4]) was 1.5 and the fold induction at 50 µM (E. coli; planktonic E. coli, 50 μM final drug concentration, 384-well, cutoff for positive-scoring molecules 3-fold increase, read-out: AK-based Prestwick Library Screening Results: E. coli (increase in extracellular AK activity)) was 1.6. The fold induction at 50 µM (P. aeruginosa; [5]) was 1.1, the fold induction at 50 µM [1, 6] was 1.3 and the fold induction at 50 µM (E. faecium; [7]) was 1. The fold induction at 50 µM [2, 8] was 2.9.

For Clofilium tosylate, the “AK-based Prestwick Library Screening Results: K. pneumoniae (increase in extracellular AK activity)” value (K. pneumoniae; planktonic K. pneumoniae, 50 μM final drug concentration, 384-well, cutoff for positive-scoring molecules 3-fold increase) was 1.5, the “AK-based Prestwick Library Screening Results: E. cloacae (increase in extracellular AK activity)” value (E. cloacae; planktonic E. cloacae, 50 μM final drug concentration, 384-well, cutoff for positive-scoring molecules 3-fold increase) was 1.2 and the “AK-based Prestwick Library Screening Results: E. coli (increase in extracellular AK activity)” value (E. coli; planktonic E. coli, 50 μM final drug concentration, 384-well, cutoff for positive-scoring molecules 3-fold increase) was 1.5. For the same compound, the “AK-based Prestwick Library Screening Results: P. aeruginosa (increase in extracellular AK activity)” value (P. aeruginosa; planktonic P. aeruginosa, 50 μM final drug concentration, 384-well, cutoff for positive-scoring molecules 3-fold increase) was 1.3, the “AK-based Prestwick Library Screening Results: S. aureus (increase in extracellular AK activity)” value ([1]; planktonic S. aureus, 50 μM final drug concentration, 384-well, cutoff for positive-scoring molecules 3-fold increase) was 1.2 and the “AK-based Prestwick Library Screening Results: E. faecium (increase in extracellular AK activity)” value (E. faecium; planktonic E. faecium, 50 μM final drug concentration, 384-well, cutoff for positive-scoring molecules 3-fold increase) was 1.4. For the same compound, the “AK-based Prestwick Library Screening Results: A. baumannii (increase in extracellular AK activity)” value ([2]; planktonic A. baumannii, 50 μM final drug concentration, 384-well, cutoff for positive-scoring molecules 3-fold increase) was 1.6.
